In this assay the test system is M. tuberculosis W4-E1-GFP (Mutant). It is filed as cell-based, Mycobacterium tuberculosis. Particulars: read-out: EC50_Mutant.
Consider `O=C(CCC(F)(F)F)N1CCC(c2cnccn2)CC1` [Example 1, 4,4,4-trifluoro-1-(4-pyrazin-2-yl-1-piperidyl)butan-1-one], for which the EC50 is 1000 to 10000 nM.

On to `O=C(CCC(F)(F)F)N1CCC(F)(c2cccnc2)CC1` [Example 2, 4,4,4-trifluoro-1-[4-fluoro-4-(3-pyridyl)-1-piperidyl]butan-1-one], for which the EC50 was in the range of 500 to 1000 nM.

As to `O=C(CCC(F)(F)F)N1CCC(c2cncc(F)c2)CC1` [Example 3, 4,4,4-trifluoro-1-[4-(5-fluoro-3-pyridyl)-1-piperidyl]butan-1-one], the EC50 fell in the range of 1000 to 10000 nM.

With `O=C(CCC(F)(F)F)N1CCC(c2ccc(F)nc2)CC1` [Example 4, 4,4,4-trifluoro-1-[4-(6-fluoro-3-pyridyl)-1-piperidyl]butan-1-one], the EC50 was 1000 to 10000 nM.

`O=C(CCC(F)(F)F)N1CCC(c2ccc(C(F)(F)F)nc2)CC1` [Example 5, 4,4,4-trifluoro-1-[4-[6-(trifluoromethyl)-3-pyridyl]-1-piperidyl]butan-1-one]: the EC50 was in the range of 1000 to 10000 nM.

As for `O=C(CCC(F)(F)F)N1CCC(c2cc(C(F)(F)F)ccn2)CC1` [Example 6, 4,4,4-trifluoro-1-[4-[4-(trifluoromethyl)-2-pyridyl]-1-piperidyl]butan-1-one], the EC50 was in the range of 50 to 250 nM.

Consider `O=C(CCC(F)(F)F)N1CCC(c2cncc(C(F)(F)F)c2)CC1` [Example 7, 4,4,4-trifluoro-1-[4-[5-(trifluoromethyl)-3-pyridyl]-1-piperidyl]butan-1-one], for which the EC50 was 50 to 250 nM.

For `O=C(CCC(F)(F)F)N1CCC(c2cccc(C(F)(F)F)n2)CC1` [Example 8, 4,4,4-trifluoro-1-[4-[6-(trifluoromethyl)-2-pyridyl]-1-piperidyl]butan-1-one], the EC50 lay in the range of 1000 to 10000 nM.

Regarding `O=C(CCC(F)(F)F)N1CCC(c2cccc(F)n2)CC1` [Example 9, 4,4,4-trifluoro-1-[4-(6-fluoro-2-pyridyl)-1-piperidyl]butan-1-one], the EC50 is 250 to 500 nM.

On to `COc1ccc(C2CCN(C(=O)CCC(F)(F)F)CC2)cn1` [Example 10, 4,4,4-trifluoro-1-[4-(6-methoxy-3-pyridyl)-1-piperidyl]butan-1-one], for which the EC50 was in the range of 50 to 250 nM.

As to `O=C(CCC(F)(F)F)N1CCC(c2cccnc2C(F)(F)F)CC1` [Example 11, 4,4,4-trifluoro-1-[4-[2-(trifluoromethyl)-3-pyridyl]-1-piperidyl]butan-1-one], the EC50 fell in the range of 1000 to 10000 nM.

Turning to `COc1cncc(C2CCN(C(=O)CCC(F)(F)F)CC2)c1` [Example 12, 4,4,4-trifluoro-1-[4-(5-methoxy-3-pyridyl)-1-piperidyl]butan-1-one], the EC50 lay in the range of 500 to 1000 nM.

As to `O=C(CCC(F)(F)F)N1CCC(c2ccc(F)nc2F)CC1` [Example 14, 1-[4-(2,6-difluoro-3-pyridyl)-1-piperidyl]-4,4,4-trifluoro-butan-1-one], the EC50 lay within 50 to 250 nM.

For the compound `O=C(CCC(F)(F)F)N1CCC(c2nccc(C(F)(F)F)n2)CC1` [Example 15], the EC50 is 1000 to 10000 nM.

Consider `O=C(CCC(F)(F)F)N1CCC(c2cncnc2)CC1` [Example 16], for which the EC50 was 1000 to 10000 nM.

`O=C(CCC(F)(F)F)N1CCC(c2ccc(F)cn2)CC1` [Example 17, 4,4,4-trifluoro-1-[4-(5-fluoro-2-pyridyl)-1-piperidyl]butan-1-one]: the EC50 is 1000 to 10000 nM.

As for `O=C(CCC(F)(F)F)N1CCC(c2ccnc(C(F)(F)F)c2)CC1` [Example 18, 4,4,4-trifluoro-1-(4-(2-(trifluoromethyl)pyridin-4-yl)piperidin-1-yl)butan-1-one], the EC50 was under 50 nM.

Regarding `O=C(CCC(F)(F)F)N1CCC(c2ccnc(F)c2)CC1` [Example 20, 4,4,4-trifluoro-1-(4-(2-fluoropyridin-4-yl)piperidin-1-yl)butan-1-one], the EC50 was 50 to 250 nM.

With `O=C(CCC(F)(F)F)N1CCC(c2cnc(C(F)(F)F)cn2)CC1` [Example 21, 4,4,4-trifluoro-1-(4-(5-(trifluoromethyl)pyrazin-2-yl)piperidin-1-yl)butan-1-one], the EC50 was in the range of 1000 to 10000 nM.

Turning to `Cc1cc(C2CCN(C(=O)CCC(F)(F)F)CC2)ccn1` [Example 22, 4,4,4-trifluoro-1-(4-(2-methylpyridin-4-yl)piperidin-1-yl)butan-1-one], the EC50 was 50 to 250 nM.

In the case of `O=C(CCC(F)(F)F)N1CCC(c2cnc(F)c(F)c2)CC1` [Example 23, 1-(4-(5,6-difluoropyridin-3-yl)piperidin-1-yl)-4,4,4-trifluorobutan-1-one], the EC50 was 50 to 250 nM.

With `O=C(CCC(F)(F)F)N1CCC(c2cncc(C(F)(F)F)n2)CC1` [Example 24, 4,4,4-trifluoro-1-(4-(6-(trifluoromethyl)pyrazin-2-yl)piperidin-1-yl)butan-1-one], the EC50 was 500 to 1000 nM.

For the compound `O=C(CCC(F)(F)F)N1CCC(c2ccnc(Cl)c2)CC1` [Example 25, 1-(4-(2-chloropyridin-4-yl)piperidin-1-yl)-4,4,4-trifluorobutan-1-one], the EC50 lay in the range of 50 to 250 nM.

Take `O=C(CCC(F)(F)F)N1CCC(c2ccncc2F)CC1` [Example 26, 4,4,4-trifluoro-1-(4-(3-fluoropyridin-4-yl)piperidin-1-yl)butan-1-one]: the EC50 fell in the range of 500 to 1000 nM.

Take `O=C(CCC(F)(F)F)N1CCC(c2cccc(Cl)n2)CC1` [Example 27, 1-(4-(6-chloropyridin-2-yl)piperidin-1-yl)-4,4,4-trifluorobutan-1-one]: the EC50 lay in the range of 50 to 250 nM.

Take `O=C(CCC(F)(F)F)N1CCC(c2ncccn2)CC1` [Example 28, 4,4,4-trifluoro-1-[4-(pyrimidin-2-yl)piperidin-1-yl]butan-1-one]: the EC50 fell in the range of 1000 to 10000 nM.

Take `O=C(CCC(F)(F)F)N1CCC(F)(c2cncc(Cl)c2)CC1` [Example 29, 1-(4-(5-chloropyridin-3-yl)-4-fluoropiperidin-1-yl)-4,4,4-trifluorobutan-1-one]: the EC50 was under 50 nM.

Consider `O=C(CCC(F)(F)F)N1CCC(c2cncc(Cl)c2)CC1` [Example 30, 1-(4-(5-chloropyridin-3-yl)piperidin-1-yl)-4,4,4-trifluorobutan-1-one], for which the EC50 lay in the range of 50 to 250 nM.

On to `O=C(CCCC(F)(F)F)N1CCC(c2cncc(Cl)c2)CC1` [Example 31, 1-(4-(5-chloropyridin-3-yl)piperidin-1-yl)-5,5,5-trifluoropentan-1-one], for which the EC50 is 250 to 500 nM.

As for `O=C(CCC(F)(F)F)N1CCC(c2cncc(Cl)n2)CC1` [Example 32, 1-(4-(6-chloropyrazin-2-yl)piperidin-1-yl)-4,4,4-trifluorobutan-1-one], the EC50 fell in the range of 50 to 250 nM.

Consider `O=C(CCC(F)(F)F)N1CCC(F)(c2ccccn2)CC1` [Example 33, 4,4,4-trifluoro-1-(4-fluoro-4-(pyridin-2-yl)piperidin-1-yl)butan-1-one], for which the EC50 was in the range of 50 to 250 nM.

For the compound `O=C(CCC(F)(F)F)N1CCC(F)(c2cncc(C(F)(F)F)c2)CC1` [Example 34, 4,4,4-trifluoro-1-(4-fluoro-4-(5-(trifluoromethyl)pyridin-3-yl)piperidin-1-yl)butan-1-one], the EC50 is under 50 nM.

As for `O=C(CCC(F)(F)F)N1CCC(F)(c2ccnc(C(F)(F)F)c2)CC1` [Example 35, 4,4,4-trifluoro-1-(4-fluoro-4-(2-(trifluoromethyl)pyridin-4-yl)piperidin-1-yl)butan-1-one], the EC50 was under 50 nM.

Take `O=C(CCC(F)(F)F)N1CCC(F)(c2cncc(Cl)n2)CC1` [Example 36, 1-(4-(6-chloropyrazin-2-yl)-4-fluoropiperidin-1-yl)-4,4,4-trifluorobutan-1-one]: the EC50 was in the range of 250 to 500 nM.

Consider `O=C(CCC(F)(F)F)N1CCC(F)(c2ccnc(F)c2)CC1` [Example 37, 4,4,4-trifluoro-1-(4-fluoro-4-(2-fluoropyridin-4-yl)piperidin-1-yl)butan-1-one], for which the EC50 is under 50 nM.

For `O=C(CCC(F)(F)F)N1CCC(c2cncc(Cl)c2)C1` (stereo not drawn) [Example 38, 1-(3-(5-chloropyridin-3-yl)pyrrolidin-1-yl)-4,4,4-trifluorobutan-1-one], the EC50 is under 50 nM.

In the case of `O=C(CCC(F)(F)F)N1CCC(F)(c2cc(C(F)(F)F)ccn2)CC1` [Example 39, 4,4,4-trifluoro-1-[4-fluoro-4-[4-(trifluoromethyl)-2-pyridyl]-1-piperidyl]butan-1-one], the EC50 is 50 to 250 nM.

Turning to `O=C(CCC(F)(F)F)N1CCC(F)(c2ccc(F)nc2)CC1` [Example 40], the EC50 was in the range of 50 to 250 nM.

For `O=C(CCC(F)(F)F)N1CCC(F)(c2ccnc(Cl)c2)CC1` [Example 41], the EC50 was under 50 nM.

The values above are taken from patent US11969423B2, “Compounds” (GLAXOSMITHKLINE INTELLECTUAL PROPERTY DEVELOPMENT LIMITED, priority 2017, dated 2024).
